{"source": "patent US9919055B2", "about": "“Sugar-linker-drug conjugates” (Arizona Board of Regents on Behalf of Arizona State …, priority 2013, dated 2018)", "key": {"DU 145(MTX) cells": {"tested_on": "DU 145(MTX) cells", "assay": "Sensitivity of methotrexate resistant cell line DU 145(MTX) versus parental DU 145 cells", "format": "cell-based, human", "protocol": "(§1) A methotrexate resistant cell line. DU 145(MTX) was developed from parental DU 145 cells by exposure to increasing concentrations (starting at 0.1 μM) of methotrexate over a period of 6 months. DU 145(MTX) was at least 250-fold less sensitive to methotrexate than parental cells."}, "[1]": {"tested_on": "MTX Resistant DU-145 Cells", "assay": "In vitro cell growth inhibition test (MTT assay, cell viability)", "format": "cell-based, human", "settings": "72 h incubation, DU-145-MTX cells", "protocol": "as §1\nThe human prostate cancer cell lines DU-145 (ATCC) was cultured in MEM media with glutamine and supplemented with 10% fetal bovine serum, penicillin (100 U/mL) and streptomycin ([…]) in air enriched with 5% CO2 at 37° C.\nCell viability was determined using the MTT assay. Briefly, cells were seeded in 96-well plates at a density of 3000 cells per well in 0.1 mL MEM media supplemented with 10% fetal bovine serum, and test compounds were concomitantly added in a concentration range of 0.001-1000 μM. Dilutions were made using the culture medium from 1 mM stock solutions of the drugs in anhydrous DMSO. Controls were treated with an equivalent amount of solvent, diluted as above, to assess the absence of toxicity due to the solvent. After 72 h of incubation, 15 μL of 5 mg mL^−1 MTT dye (3-[4,5-dimethylthiazol-2-yl]-2,5-diphenyltetrazolium bromide, sigma) was added for 4 h at 37° C. Media was removed and the monolayer suspended in 0.15 mL of DMSO, after which the absorbance at 570 nm was measured using a microplate reader. The control value corresponding to untreated cells was defined as 100% and the viability of treated samples was expressed as a percentage of the control."}}}
{"compound": "CN(Cc1cnc2nc(N)nc(N)c2n1)c1ccc(C(=O)N[C@@H](CCC(=O)O)C(=O)O)cc1", "note": "[Methotrexate (MTX), Methotrexate, reference compound]", "values": [{"measurement": "fold less sensitive to methotrexate than parental cells", "setting": "DU 145(MTX) cells", "result": "at least 250 fold"}, {"measurement": "DU-145-MTX (% cell survival)", "setting": "[1]; 100 nM test compound", "result": 82, "unit": "%"}, {"measurement": "DU-145-MTX (% cell survival)", "setting": "[1]; 1 μM test compound", "result": 84, "unit": "%"}, {"measurement": "DU-145-MTX (% cell survival)", "setting": "[1]; 10 μM test compound", "result": 83, "unit": "%"}]}
